System: SEM cells
Experiment: cell viability relative to DMSO control; higher = less cytotoxic
Details: 48 h
Method in brief: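 Viability, reported as a per-plate percentage of DMSO wells with cell-free wells as background, came from CellTiter-Glo One luminescence. Reading took place after 48 h at 37°C. Before that, NOMO1 or SEM (500 cells/well) or P12-Ichikawa (1000 cells/well) leukemia cells, adapted for at least four passages in each medium, were seeded in 1536-well plates (5 μl) and pin-dosed with library compounds in DMSO, 47 μM to 0.79 nM over 11 threefold points.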

[1] = HPLM + 10% dialyzed FBS, 0.000781 µM
[2] = HPLM + 10% dialyzed FBS, 0.00234 µM
[3] = HPLM + 10% dialyzed FBS, 0.00702 µM
[4] = HPLM + 10% dialyzed FBS, 0.0211 µM
[5] = HPLM + 10% dialyzed FBS, 0.0632 µM
[6] = HPLM + 10% dialyzed FBS, 0.19 µM
[7] = HPLM + 10% dialyzed FBS, 0.569 µM
[8] = HPLM + 10% dialyzed FBS, 1.71 µM
[9] = HPLM + 10% dialyzed FBS, 5.12 µM
[10] = HPLM + 10% dialyzed FBS, 15.4 µM
[11] = HPLM + 10% dialyzed FBS, 46.1 µM
[12] = RPMI 5 mM glucose + 10% FBS, 0.000781 µM
[13] = RPMI 5 mM glucose + 10% FBS, 0.00234 µM
[14] = RPMI 5 mM glucose + 10% FBS, 0.00702 µM
[15] = RPMI 5 mM glucose + 10% FBS, 0.0211 µM
[16] = RPMI 5 mM glucose + 10% FBS, 0.0632 µM
[17] = RPMI 5 mM glucose + 10% FBS, 0.19 µM
[18] = RPMI 5 mM glucose + 10% FBS, 0.569 µM
[19] = RPMI 5 mM glucose + 10% FBS, 1.71 µM
[20] = RPMI 5 mM glucose + 10% FBS, 5.12 µM
[21] = RPMI 5 mM glucose + 10% FBS, 15.4 µM
[22] = RPMI 5 mM glucose + 10% FBS, 46.1 µM
[23] = RPMI 5 mM glucose + 10% dialyzed FBS, 0.000781 µM
[24] = RPMI 5 mM glucose + 10% dialyzed FBS, 0.00234 µM
[25] = RPMI 5 mM glucose + 10% dialyzed FBS, 0.00702 µM
[26] = RPMI 5 mM glucose + 10% dialyzed FBS, 0.0211 µM
[27] = RPMI 5 mM glucose + 10% dialyzed FBS, 0.0632 µM
[28] = RPMI 5 mM glucose + 10% dialyzed FBS, 0.19 µM
[29] = RPMI 5 mM glucose + 10% dialyzed FBS, 0.569 µM
[30] = RPMI 5 mM glucose + 10% dialyzed FBS, 1.71 µM
[31] = RPMI 5 mM glucose + 10% dialyzed FBS, 5.12 µM
[32] = RPMI 5 mM glucose + 10% dialyzed FBS, 15.4 µM
[33] = RPMI 5 mM glucose + 10% dialyzed FBS, 46.1 µM

SMILES	cell viability [1] [%]	cell viability [2] [%]	cell viability [3] [%]	cell viability [4] [%]	cell viability [5] [%]	cell viability [6] [%]	cell viability [7] [%]	cell viability [8] [%]	cell viability [9] [%]	cell viability [10] [%]	cell viability [11] [%]	cell viability [12] [%]	cell viability [13] [%]	cell viability [14] [%]	cell viability [15] [%]	cell viability [16] [%]	cell viability [17] [%]	cell viability [18] [%]	cell viability [19] [%]	cell viability [20] [%]	cell viability [21] [%]	cell viability [22] [%]	cell viability [23] [%]	cell viability [24] [%]	cell viability [25] [%]	cell viability [26] [%]	cell viability [27] [%]	cell viability [28] [%]	cell viability [29] [%]	cell viability [30] [%]	cell viability [31] [%]	cell viability [32] [%]	cell viability [33] [%]
O=C(O)Cc1cccc(OCCCN(Cc2cccc(C(F)(F)F)c2Cl)CC(c2ccccc2)c2ccccc2)c1	109	118	109	97.8	113	102	110	100	93.5	103	94.5	98.3	93.6	95.1	101	86.3	84.5	92	89.5	87.3	84.8	96.4	111	111	109	135	119	113	126	103	96.1	99.2	111
COc1ccc(C2(C#N)CCC(C(=O)O)CC2)cc1OC1CCCC1 (stereo not given)	85.5	97.5	95.9	101	99.6	102	103	94.7	105	106	114	77.3	85.3	94.1	90.4	87.4	95.5	104	95.8	88.3	99.4	99.6	81.8	86.8	104	94.4	84.3	95.5	92.2	100	90.4	96.9	96.3
NC[C@H]1O[C@H](O[C@H]2[C@H](O)[C@@H](O[C@H]3O[C@H](CO)[C@@H](O)[C@H](N)[C@H]3O)[C@H](N)C[C@@H]2N)[C@H](N)C[C@@H]1O	88.9	95.3	98.6	108	104	92.9	107	96.9	101	101	109	93.7	97.1	106	98.6	119	109	112	95.6	89	100	111	105	105	118	116	107	108	110	104	112	103	111
OC[C@H]1OC(OC2=CC3=C(C(=C2)O)C(=O)\C(=C/O3)C4=CC=C(O)C=C4)[C@H](O)[C@@H](O)[C@@H]1O (stereo not given in full)	93.7	92.9	92	98.1	93	79.9	69.7	93.4	81.6	78.6	65.3	97.9	86.8	111	102	117	89.6	89	98	86.4	92.4	94.1	86.3	89.1	114	94.7	106	88.3	89.8	96.6	90.3	90.1	95.8
Cn1cnc([N+](=O)[O-])c1Sc1ncnc2nc[nH]c12	83.9	90.7	99.3	88	101	100	95.7	83	103	24.4	20.8	87.3	86.8	93.4	108	88.2	92.1	100	43.5	23.8	24.9	15.4	90.3	82.8	84.6	71.8	88.9	89.1	77	32.1	28.7	20.7	14.3
CCOC(=O)[C@@H](N)CCC(=O)N[C@@H](CSCc1ccccc1)C(=O)N[C@@H](C(=O)OCC)c1ccccc1	84.5	105	99.8	103	104	111	109	116	119	97.1	102	–	–	–	–	–	–	–	–	–	–	–	–	–	–	–	–	–	–	–	–	–	–
CO[C@@H]1[C@@H](O)[C@H](O)[C@@H](n2c3c(Cl)cccc3c3c4c(c5c6cccc(Cl)c6[nH]c5c32)C(=O)NC4=O)O[C@H]1CO	99.7	90.8	105	112	96.9	81.2	54.5	13.8	9.51	5.16	5.04	137	118	113	112	108	70.1	28.1	11.5	6.56	4.38	4.8	99.2	113	95.1	100	92.4	82.9	43.1	11	7.94	4.29	3.62
COc1cc2c(Nc3ccc(Cl)c(Cl)c3F)ncnc2cc1OC[C@@H]1C[C@@H]2CN(C)C[C@@H]2C1	88.5	78.5	86.2	91.6	94.5	94.5	94.4	91.5	87.8	40	3.92	–	–	–	–	–	–	–	–	–	–	–	88.8	91.6	110	103	121	91.1	103	95.5	93.7	74.7	3.96
O=C1CCCC(=O)C1C(=O)c1ccc(C(F)(F)F)cc1[N+](=O)[O-]	112	115	100	107	108	108	114	102	106	113	108	109	103	112	98.4	109	97.5	112	101	108	85.9	86	105	104	110	110	127	106	111	129	113	115	102
O=C(NCC1CCOCC1)c1cnc(Nc2ccc(Cl)cc2Cl)nc1C(F)(F)F	89.6	98.1	99	67.7	108	103	106	102	99.5	114	117	95.9	103	108	61.9	99.1	100	99.7	103	99.1	105	98.5	94.2	97.8	108	67.9	121	119	113	112	91.7	123	101
N#CC[C@H](C1CCCC1)n1cc(-c2ncnc3[nH]ccc23)cn1	100	104	103	103	94.1	85.9	103	90.1	63.7	39.6	24.5	103	111	86.6	108	109	96.1	92.7	107	50	23	19.8	98.9	97.7	98.1	97.9	113	99.6	96.8	87.3	63.3	31.6	26.3
CN1CCC(CC1)=C2C3=C(C=CC=C3)\C=C/C4=C2C=CC=C4	102	109	120	121	125	126	123	112	131	105	103	118	121	126	115	125	135	139	138	130	113	101	101	109	117	117	133	134	130	104	119	112	86.7
Nc1ccc([S+](=O)([O-])Nc2ncccn2)cc1	100	103	105	96.8	109	117	99.7	110	103	109	112	110	108	120	86.1	117	117	108	122	126	114	110	111	109	125	74.4	122	136	133	129	145	134	124
Oc1c(Cl)cc(Cl)c2cccnc12	112	77	121	104	109	120	122	108	104	66.3	12.3	108	102	94	103	102	113	120	91.4	112	71	7.14	107	93.8	85.1	97.2	97.5	96.3	101	116	99.1	59.8	7.1
CC(C)Cn1cnc2c(N)nc3ccccc3c21	98.8	107	106	105	110	110	104	93.5	102	91.8	77.1	104	124	103	115	104	111	104	94.1	111	105	72.1	105	118	117	116	108	105	120	113	93.8	90.6	92
C1CN\2C[C@@H](\N=C2S1)C3=CC=CC=C3	82.1	95	104	88.6	98.7	99.5	100	100	97.8	100	86.1	73.7	86.7	89.4	83.1	90.9	75.2	87.6	89.3	88	87.8	40.4	88.8	95.3	100	107	106	116	107	106	118	100	76.9

— the supplement of paper PMC11451515
